According to patent publication US10201586B2 (dated 2019):
One block for each molecule: values may come before it. Where a SMILES comes first, the peptide text is derived from it. [ ]: non-standard residue; d: D form. Tle = CC(C)(C)[C@H](N)C(=O)O; Aib = CC(C)(N)C(=O)O

Experiments:
TFPI [1] = molecular target: T1, TFPI (Homo sapiens, UniProt P10646); assay: IC50 [nM]
[2] = molecular target: Tissue Factor Pathway Inhibitor (TFPI) (Homo sapiens, UniProt P10646); assay: IC50 ELISA | IC50 [nM]
[3] = plasma stability in human plasma; type: in vitro ADME; settings: 24 hour
C57B1/6NCr1 mice = assay: nail clip blood loss study; type: in vivo, mouse
[4] = system: human whole blood clot formation; assay: rotation thromboelastography (ROTEM); settings: Hem A (FVIII-inhibited) human whole blood
FIX knock-out mice = assay: tail-tip bleed model; type: in vivo, mouse
Protocol: The amount of blood was determined gravimetrically.
JBT2329 also was tested in a FIX knock-out tail-tip bleed mouse model, which is a clinically-relevant model for hemophilia B human patients. The methodology was substantially similar to that described above with respect to the FVIII knock-out model. Instead of ADVATE, a recombinant FIX (rFIX) served as a reference. Median total blood loss in buffer-treated animals was 935 mg. Median total blood loss in animals treated with a murine anti-TFPI antibody (maTFPI) was 774 mg. Median total blood loss was reduced further when the animals received combined treatment of maTFPI and rFIX.

[5] = pharmacokinetic analysis in mice; type: in vivo, mouse; settings: C57B16 mice, 1 mg/kg (peptide content)
FVIII knock-out mice = settings: 1 mg/kg JBT2329 without ADVATE
TFPI [6] = molecular target: T1, TFPI; assay: IC50 [nM]; remark: listed apart in the source
TFPI [7] = molecular target: T1, TFPI; assay: IC50 Mean (nM]

T1 sequence (P10646 29-304 limits assumed): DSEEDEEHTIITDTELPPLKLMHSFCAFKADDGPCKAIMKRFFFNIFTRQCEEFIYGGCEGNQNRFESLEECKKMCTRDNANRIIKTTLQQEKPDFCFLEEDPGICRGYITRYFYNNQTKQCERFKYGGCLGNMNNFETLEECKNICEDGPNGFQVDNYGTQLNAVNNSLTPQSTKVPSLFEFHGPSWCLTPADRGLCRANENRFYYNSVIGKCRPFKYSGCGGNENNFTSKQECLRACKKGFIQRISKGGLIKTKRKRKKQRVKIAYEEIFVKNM
Chain of Tissue Factor Pathway Inhibitor (TFPI) (P10646 29-304 limits assumed): as above

IC50 (TFPI [1]): 17 µM
Molecule: CSCC[C@H](NC(=O)[C@H](CCC(=O)O)NC(=O)[C@H](CCCCN)NC(=O)[C@H](CO)NC(=O)[C@H](CCCNC(=N)N)NC(=O)[C@H](CCCCN)NC(=O)[C@H](CO)NC(=O)[C@@H](NC(=O)[C@H](Cc1c[nH]cn1)NC(=O)[C@H](CC(C)C)NC(=O)[C@H](CCC(N)=O)NC(=O)[C@@H](NC(=O)[C@H](C)NC(=O)[C@H](CC(C)C)NC(=O)[C@@H]1CCCN1C(=O)[C@H](CCCCN)NC(=O)[C@H](CCCCN)NC(C)=O)C(C)C)C(C)C)C(=O)N[C@@H](C)C(=O)N[C@@H](CC(C)C)C(=O)N[C@@H](C)C(=O)N[C@@H](CCCNC(=N)N)C(=O)N[C@@H](CC(C)C)C(=O)N[C@@H](Cc1ccc(O)cc1)C(=O)N[C@@H](Cc1ccc(O)cc1)C(=O)N[C@@H](CCCCN)C(=O)N[C@H](C(=O)N[C@@H](CO)C(=O)N[C@@H](CCCCN)C(=O)N[C@@H](CCCCN)C(N)=O)[C@@H](C)O [JBT0229 | 2129] (Ac-KKPLAVQLHVSKRSKEMALARLYYKTSKK-NH2)

IC50 [2]: 0.0105 µM
Molecule: CC(=O)N[C@@H](Cc1ccccc1)C(=O)N[C@@H](CCC(N)=O)C(=O)N[C@@H](CC(=O)O)C(=O)N[C@@H](CCCCN)C(=O)N1CCC[C@@H]1C(=O)N[C@@H](CC(N)=O)C(=O)N[C@H](C(=O)N[C@@H](Cc1c[nH]cn1)C(=O)N[C@H](C(=O)N[C@@H](CC(=O)O)C(=O)NCC(=O)N[C@@H](Cc1ccc(O)cc1)C(=O)N[C@@H](Cc1ccccc1)C(=O)N[C@@H](CCC(=O)O)C(=O)N[C@@H](CCCNC(=N)N)C(=O)N[C@@H](CC(C)C)C(=O)NC(C)(C)C(=O)N[C@@H](C)C(=O)N[C@@H](CCCCN)C(=O)N[C@@H](CC(C)C)C(N)=O)C(C)(C)C)C(C)C [JBT2426 | 4144, Ac-FQDKpNVH-Tle-DGYFERL-Aib-AKL-NH2] (Ac-FQDK[dP]NVH[Tle]DGYFERL[Aib]AKL-NH2)

Molecule: Ac-FQSKpNVHVDGYFERL-Aib-AKLC(PEG)-NH2 [JBT2329]
Human Plasma Stability, 24 hour (%) [3]: 67.3%
blood loss, second 30 minute period (C57B1/6NCr1 mice; 0.1 mg/kg i.v.): 18.7 µL
reduction of blood loss vs vehicle, first 30 minutes (C57B1/6NCr1 mice; 0.1 mg/kg i.v.): about 50%
reduction of blood loss vs vehicle, second 30 minute period (C57B1/6NCr1 mice; 0.1 mg/kg i.v.): about 64%
reduction of total blood loss over 60 minutes vs vehicle (C57B1/6NCr1 mice; 0.1 mg/kg i.v.): ~60%
total blood loss over 60 minutes (C57B1/6NCr1 mice; 0.1 mg/kg i.v.): 34.7 µL
blood loss, first 30 minutes (C57B1/6NCr1 mice; 0.1 mg/kg i.v., naive C57BL6 mice): 16.0 µL
blood loss, entire 60 minute collection period (C57B1/6NCr1 mice; 1.0 mg/kg i.v.): 22.8 µL
blood loss, first 30 minutes (C57B1/6NCr1 mice; 1.0 mg/kg i.v.): 12.2 µL
blood loss, second 30 minute period (C57B1/6NCr1 mice; 1.0 mg/kg i.v.): 10.6 µL
reduction of blood loss during 60 minutes vs vehicle (C57B1/6NCr1 mice; 10 mg/kg subcutaneous): approximately 58%
coagulation parameters [4]: restored prolonged coagulation parameters in Hem A blood
median total blood loss vs buffer (FIX knock-out mice; 1 mg/kg JBT2329 alone (p=0.321)): did not lead to a significant reduction in median total blood loss
Efficacy vs buffer at a […] level (FIX knock-out mice; JBT2329 1 mg/kg or 0.1 mg/kg in combination with 10 IU/kg rFIX): statistically significant superiority over buffer
HL_λ_z [h] (intravenous) ([5]; intravenous): 19.8 h
Bioavailability [%] (s.c.) ([5]; s.c. AUC vs i.v. AUC): 73.3%
median total blood loss vs buffer (FVIII knock-out mice): did not reduce median total blood loss

IC50 (TFPI [6]): 12.9 µM
Molecule: CC[C@H](C)[C@H](NC(=O)[C@H](CCC(=O)O)NC(=O)[C@H](CCCCN)NC(=O)[C@H](CO)NC(=O)[C@H](CCCNC(=N)N)NC(=O)[C@H](CCCCN)NC(=O)[C@H](CO)NC(=O)[C@@H](NC(=O)[C@H](Cc1c[nH]cn1)NC(=O)[C@H](CC(C)C)NC(=O)[C@H](CCC(N)=O)NC(=O)[C@@H](NC(=O)[C@H](C)NC(=O)[C@H](CCC(N)=O)NC(=O)[C@H](Cc1c[nH]c2ccccc12)NC(=O)[C@H](Cc1ccccc1)NC(=O)[C@H](CO)NC(=O)[C@H](C)NC(=O)[C@H](Cc1ccc(O)cc1)NC(=O)CNC(C)=O)C(C)C)C(C)C)C(=O)N[C@@H](C)C(N)=O [JBT1663 | 2146] (Ac-GYASFWQAVQLHVSKRSKEIA-NH2)

IC50 (TFPI [7]): > 50 µM
Molecule: CC[C@H](C)[C@H](NC(=O)[C@@H](NC(=O)CNC(=O)[C@@H]1CCCN1C(=O)CNC(=O)[C@H](Cc1c[nH]c2ccccc12)NC(=O)[C@@H](NC(=O)[C@@H](NC(=O)[C@H](CCCCN)NC(=O)[C@H](CO)NC(=O)[C@H](Cc1c[nH]c2ccccc12)NC(=O)[C@H](Cc1ccccc1)NC(=O)[C@H](Cc1ccc(O)cc1)NC(=O)[C@@H](NC(=O)[C@H](Cc1c[nH]c2ccccc12)NC(=O)[C@H](CC(=O)O)NC(=O)CNC(=O)[C@@H](NC(=O)[C@H](CC(C)C)NC(=O)[C@H](CCCCN)NC(=O)[C@H](CCCCN)NC(C)=O)[C@@H](C)O)[C@@H](C)O)C(C)C)[C@@H](C)CC)C(C)C)C(=O)N[C@@H](CCC(=O)O)C(=O)N[C@@H](CCCNC(=N)N)C(=O)N[C@@H](CCC(N)=O)C(=O)N[C@@H](CCSC)C(=O)N1CCC[C@H]1C(=O)N[C@H](C(=O)N[C@@H](CO)C(=O)N[C@H](C(=O)N[C@@H](Cc1ccccc1)C(=O)N[C@@H](Cc1c[nH]cn1)C(=O)N[C@@H](CCCCN)C(=O)N[C@@H](CCCCN)C(N)=O)[C@@H](C)O)C(C)C [JBT0177* | 3065] (Ac-KKLTGDWTYFWSKVIWGPGVIERQMPVSTFHKK-NH2)
